Patent US6995143B2, “Macrolides with antibacterial activity” (Basilea Pharmaceutica AG, priority 2002, dated 2006)
Converted amounts (≈) assume the structure as drawn.

Legend:
Assay type in all cases: cell-based
[1] = system: Streptococcus pneumoniae 12288; assay: MIC, standard microdilution technique
In short: (§1)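 NCCLS M7-A5 dilution protocol for aerobic bacteria; MIC read per that approved standard.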

[2] = system: Staphylococcus aureus 1086; assay: MIC, standard microdilution technique
In short: as §1

[3] = system: Escherichia coli ATCC 25922; assay: MIC, standard microdilution technique
In short: as §1

[4] = system: Streptococcus pneumoniae l/l; assay: MIC, standard microdilution technique
In short: as §1

[5] = system: Streptococcus pneumoniae SL199T; assay: MIC, standard microdilution technique
In short: as §1

[6] = system: Staphylococcus aureus ATCC 29213; assay: MIC, standard microdilution technique
In short: as §1

[7] = system: Staphylococcus aureus 745; assay: MIC, standard microdilution technique
In short: as §1

[8] = system: Streptococcus pneumoniae ¼; assay: MIC, standard microdilution technique
In short: as §1

[9] = system: Haemophilus influenzae QK12/87; assay: MIC, standard agar dilution method using HTM medium
In short: (§2)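 NCCLS M7-A5 dilution protocol for aerobic bacteria; H. influenzae strains; MIC read per that standard.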

[10] = system: Haemophilus influenzae 12214; assay: as above
In short: as §2

[11] = system: Haemophilus influenzae QK50; assay: as above
In short: as §2

[12] = system: Haemophilus influenzae B1501; assay: as above
In short: as §2

Compound	minimum inhibitory concentration (MIC), Strain H [1] [µg/mL]	minimum inhibitory concentration (MIC), Strain B [2]	minimum inhibitory concentration (MIC), Strain D [3] [µg/mL]	minimum inhibitory concentration (MIC), Strain E [4]	minimum inhibitory concentration (MIC), Strain G [5] [µg/mL]	minimum inhibitory concentration (MIC), Strain A [6]	minimum inhibitory concentration (MIC), Strain C [7] [µg/mL]	minimum inhibitory concentration (MIC), Strain F [8] [µg/mL]	minimum inhibitory concentration (MIC), Strain I [9] [µg/mL]	minimum inhibitory concentration (MIC), Strain K [10] [µg/mL]	minimum inhibitory concentration (MIC), Strain L [11] [µg/mL]	minimum inhibitory concentration (MIC), Strain M [12] [µg/mL]
(3R or S, 3aS, 4R or S, 6R, 8R, 9R, 10R, 12R, 15R, 15aS) -15-Ethylhexadecahydro-4,6,8,10,12,15a-hexamethyl-2,5,11,13-tetraoxo-8-[[(2E)-3-(3-quinolyl)-2-propen-1-yl]oxy]-9-[[3,4,6-trideoxy-3-(dimethylamino)-β-D-xylo-hexopyranosyl]oxy]-2H-furo [2,3-c] oxacyclotetradecin-3-carbonitrile [Example 15]	16	<=0.06 μg/ml	>32	<=0.06 μg/ml	2	<=0.06 μg/ml	32	0.25	4	4	2	2
CC[C@H]1OC(=O)[C@H](C)C(=O)[C@H](C)[C@@H](O[C@@H]2O[C@H](C)C[C@H](N(C)C)[C@H]2O)[C@](C)(OC)C[C@@H](C)C(=O)[C@H](C)[C@H]2[C@@H](SCC(=O)NCc3ncc[nH]3)C(=O)O[C@@]21C [Example 35]	>32	8 µg/mL (≈ 10.2 µM)	>32	<=0.06 μg/ml	16 (≈ 20.5 µM)	8 µg/mL (≈ 10.2 µM)	>32	>32	16 (≈ 20.5 µM)	32 (≈ 41 µM)	16 (≈ 20.5 µM)	16 (≈ 20.5 µM)
CC[C@H]1OC(=O)[C@H](C)C(=O)[C@H](C)[C@@H](O[C@@H]2O[C@H](C)C[C@H](N(C)C)[C@H]2O)[C@](C)(OC)C[C@@H](C)C(=O)[C@H](C)[C@H]2[C@@H](SCC(=O)Nc3cc(C)on3)C(=O)O[C@@]21C [Example 33]	>32	0.5 µg/mL (≈ 0.639 µM)	>32	<=0.06 μg/ml	32 (≈ 40.9 µM)	0.5 µg/mL (≈ 0.639 µM)	>32	>32	16 (≈ 20.5 µM)	8 (≈ 10.2 µM)	8 (≈ 10.2 µM)	8 (≈ 10.2 µM)
CC[C@H]1OC(=O)[C@H](C)C(=O)[C@H](C)[C@@H](O[C@@H]2O[C@H](C)C[C@H](N(C)C)[C@H]2O)[C@](C)(OC)C[C@@H](C)C(=O)[C@H](C)[C@H]2[C@@H](SCC(=O)c3csc4ccccc34)C(=O)O[C@@]21C [Example 54]	>32	0.5 µg/mL (≈ 0.611 µM)	>32	<=0.06 μg/ml	>32	1 µg/mL (≈ 1.22 µM)	>32	32 (≈ 39.1 µM)	16 (≈ 19.6 µM)	16 (≈ 19.6 µM)	32 (≈ 39.1 µM)	8 (≈ 9.78 µM)
CC[C@H]1OC(=O)[C@H](C)C(=O)[C@H](C)[C@@H](O[C@@H]2O[C@H](C)C[C@H](N(C)C)[C@H]2O)[C@](C)(OC)C[C@@H](C)C(=O)[C@H](C)[C@H]2[C@@H](SCC(=O)Nc3cnc4ccccc4c3)C(=O)O[C@@]21C [Example 39]	32 (≈ 38.6 µM)	<=0.06 μg/ml	>32	<=0.06 μg/ml	8 (≈ 9.66 µM)	<=0.06 μg/ml	>32	32 (≈ 38.6 µM)	16 (≈ 19.3 µM)	16 (≈ 19.3 µM)	16 (≈ 19.3 µM)	8 (≈ 9.66 µM)
CC[C@H]1OC(=O)[C@H](C)C(=O)[C@H](C)[C@@H](O[C@@H]2O[C@H](C)C[C@H](N(C)C)[C@H]2O)[C@](C)(OC)C[C@@H](C)C(=O)[C@H](C)[C@H]2[C@@H](SCCNC(=O)c3ccc(-n4ccnc4)nc3)C(=O)O[C@@]21C (single isomer, unassigned) [Example 48]	>32	0.25 µg/mL (≈ 0.291 µM)	>32	<=0.06 μg/ml	>32	0.25 µg/mL (≈ 0.291 µM)	>32	>32	16 (≈ 18.6 µM)	32 (≈ 37.3 µM)	16 (≈ 18.6 µM)	16 (≈ 18.6 µM)
CC[C@H]1OC(=O)[C@H](C)C(=O)[C@H](C)[C@@H](O[C@@H]2O[C@H](C)C[C@H](N(C)C)[C@H]2O)[C@](C)(OC)C[C@@H](C)C(=O)[C@H](C)[C@H]2[C@@H](SCCC(=O)Nc3ccc4ncccc4c3)C(=O)O[C@@]21C [Example 41]	>32	<=0.06 μg/ml	>32	<=0.06 μg/ml	8 (≈ 9.5 µM)	<=0.06 μg/ml	>32	16 (≈ 19 µM)	8 (≈ 9.5 µM)	8 (≈ 9.5 µM)	16 (≈ 19 µM)	8 (≈ 9.5 µM)
